Assay results reported in PMC8662641, “Site-Specific Labeling of Endogenous Proteins Using CoLDR Chemistry” (Journal of the American Chemical Society, 2021).
Like-named read-outs stand apart in the source and are kept apart here.

Columns and labels:
GSH reactivity assay = type: physicochemical; details: for half-life at 100 μM: 5 mM GSH in potassium phosphate buffer/DMF, pH 8, read-out: GSH t1/2
Description: A 100 μM (0.5 μL of a 20 mM stock) sample of the electrophile (1a–1m) was incubated with 5 mM GSH (5 μL of a 100 mM stock, freshly dissolved), 5 mM NaOH (to counter the acidity imparted by GSH), and 100 μM 4-nitrocyanobenzene (0.5 μL of a 20 mM stock solution) as an internal standard in 100 mM potassium phosphate buffer pH 8.0 and DMF at a ratio of 9:1, respectively. All solvents were bubbled with argon. Reaction mixtures were kept at 14 °C. Every 1 h 5 μL from the reaction mixture was injected into the LC/MS. The reaction was followed by the peak area of the electrophile normalized by the area of the 4-nitrocyanobenzene (i.e., by the disappearance of the starting material). The natural logarithm of the results was fitted to linear regression, and t1/2 was calculated as t1/2 = ln 2/–slope.

Buffer stability assay = type: physicochemical
Description: A sample of 100 μM of the electrophile (1a–1p) was incubated with 100 μM 4-nitrocyanobenzene as an internal standard in a 100 mM potassium phosphate buffer of pH 8.0. All solvents were bubbled with argon. Reaction mixtures were kept at 37 °C with shaking. After 4 days (unless otherwise mentioned), 5 μL from the reaction mixture was injected into the LC/MS to check the stability of the compounds.

BTK [1] = biological target: T1, BTK (Homo sapiens, UniProt Q06187); experiment: In-gel fluorescence labeling profile in Mino cells; details: 2 h incubation, in-gel fluorescence
Target sequence in this assay (Q06187 whole entry): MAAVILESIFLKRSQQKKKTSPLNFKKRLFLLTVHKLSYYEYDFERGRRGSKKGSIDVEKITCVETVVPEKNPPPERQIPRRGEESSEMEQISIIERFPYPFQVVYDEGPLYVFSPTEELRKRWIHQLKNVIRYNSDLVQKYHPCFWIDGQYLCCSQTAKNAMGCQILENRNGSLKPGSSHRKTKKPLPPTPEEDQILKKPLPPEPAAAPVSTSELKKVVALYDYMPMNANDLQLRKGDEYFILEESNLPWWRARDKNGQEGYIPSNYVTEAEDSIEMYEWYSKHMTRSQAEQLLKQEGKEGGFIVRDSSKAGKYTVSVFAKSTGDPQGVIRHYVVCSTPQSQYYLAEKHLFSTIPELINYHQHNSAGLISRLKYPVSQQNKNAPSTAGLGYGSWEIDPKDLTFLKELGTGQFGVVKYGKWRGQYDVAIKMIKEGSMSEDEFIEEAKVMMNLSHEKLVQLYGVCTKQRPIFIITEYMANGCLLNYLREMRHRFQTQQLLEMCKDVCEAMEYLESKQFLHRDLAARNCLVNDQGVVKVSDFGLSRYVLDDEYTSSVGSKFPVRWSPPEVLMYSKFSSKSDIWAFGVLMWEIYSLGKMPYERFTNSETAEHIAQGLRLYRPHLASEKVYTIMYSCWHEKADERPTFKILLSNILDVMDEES
Description: Lysates were then diluted to 2 mg/mL in PBS. […] The samples were incubated at 25 °C for 2 h. A 20 μL amount of 4× LDS sample buffer (NuPAGE, Thermo Fisher Scientific, NP0007) was added followed by a 10 min incubation at 70 °C.
The 1× chloroform, 4× methanol, and 3× water were added to the samples and vortexed thoroughly. The samples were spun down for 10 min at 4 °C. The top layer was aspirated, and the pellet was resuspended in 4× methanol. The sample was vortexed and spun down again for 10 min at 4 °C, the solution was removed, and the pellet was dried for 2 min. The pellet was dissolved in 42 μL of PBS followed by 14 μL of 4× sample buffer. The samples were then loaded on a 4–20% Bis-Tris gel (SurePAGE, GeneScript) and imaged using a Typhoon FLA 9500 scanner.

Mino cells = experiment: Degradation proteomics (label-free quantitative proteomics); type: cell-based, human; details: 1n 500 nM, 24 h
Description: A total of 1 × 10^6 Mino cells were treated in four replicates with either 1n (500 nM) or DMSO (0.1%) for 24 h. Cells were then harvested and washed with ice cold PBS. Samples were then centrifuged at 200 rcf, 4 °C for 5 min; then the supernatant was removed and the samples were frozen at −80 °C. Samples were dispersed in 75 μL of 50 mM ammonium bicarbonate and transferred to 1.8 mL glass vials. A 75 μL amount of 10% SDS in 50 mM ammonium bicarbonate was added, and the samples were heated to 96 °C for 6 min. The samples were sonicated thoroughly in a sonication bath until the DNA was sheared, as indicated by reduction in viscosity to a level enabling easy pipettation. Total protein concentration was estimated using the BCA assay, and 30 μg from each sample was taken for LC/MS/MS analysis. The detailed procedure is available in the Supplementary Methods Section.
Trypsin/P with a maximum number of missed cleavages of 2. Oxidation of methionine and N-terminal acetylation were included as variable modifications. The “Re-quantify” option was enabled. Carbamidomethyl (C2H3NO) was used as a fixed modification on cysteine.
Contaminants were included. Peptides were searched with a minimum peptide length of 7 and a maximum peptide mass of 6500 Da. “Second peptides” was enabled, “Dependent peptides” were disabled and the option “Match between run” was enabled with a Match time window of 0.7 min and an alignment window of 20 min. An FDR of 0.01 was used for Protein FDR, PSM FDR and XPSM FDR. Proteins were identified and quantified based on the label-free quantification (LFQ) (REF: www.mcponline.org/content/13/9/2513.short) values reported by MaxQuant. Following MaxQuant analysis, proteins identified only through razor peptides or modified peptides, as well as common contaminants, were removed, and only proteins that gave at least 3 non-zero LFQ intensity values in at least one of the data sets were retained for analysis. Missing values were then replaced from a normal distribution.
Degradation proteomics experiment (label free quantitative proteomics)
Sample preparation: 106 Mino cells were treated in four replicates with either compound or DMSO for 24 hours. Cells were then washed twice by centrifuge at 200 rcf, 4°C for 5 minutes, removing the supernatant and washed with ice cold PBS. Samples were then centrifuged at 200 rcf, 4°C for 5 minutes, then supernatant was removed and samples were frozen at -80°C. Samples were dispersed in 75 μl of 50 mM ammonium bicarbonate, and transferred to 1.8 mL glass vials.
75 μl of 10% SDS in 50 mM ammonium bicarbonate were added and the samples were heated to 96°C for 6 minutes. The samples were sonicated thoroughly in a sonication bath until the DNA was sheared as indicated by reduction in viscosity to level enabling easy pipettation. Total protein concentration was estimated using BCA assay and 30 µg from each sample was taken for the […]
The samples were reduced by the addition of 1/20 volume of 100 mM DTT and heating to 60°C for 45 minutes. The samples were cooled to room temperature, and 1/20 volume of 200 mM iodoacetamide was added and the reaction was performed in the dark for 30 minutes.
At this point, 1/10 volume of 12% phosphoric acid was added, followed by 6 volumes of 90% methanol in 50 mM ammonium bicarbonate. The samples were loaded on S-trap Micro columns (Protify), and washed 3 times with 90% methanol in 50 mM ammonium bicarbonate. The columns were spun without washing to dry the methanol. […]

BTK [2] = biological target: T1, BTK; experiment: Degradation of BTK by a CoLDR PROTAC in Mino cells; type: cell-based; parameters: We incubated Mino B cells with probes containing different tags; endogenous in cells; host or cells: Mino cells; details: for DC50: Mino cells, 24 h, Western blot
Target sequence in this assay (Q06187 whole entry): as above
Description: Cell pellets were washed with ice-cold PBS and lysed using RIPA buffer (Sigma, R0278). […] Samples containing 50 μg of total protein were prepared with 4× LDS sample buffer (NuPAGE, Thermo Fischer Scientific, NP0007) and were then resolved on a 4–20% Bis-Tris gel (GeneScript SurePAGE, M00657). […] The EZ-ECL kit (Biological Industries, 20-500-1000) was used to detect HRP activity.
Cells were harvested for subsequent analysis by immunoblotting of BTK and β-actin. Bands were quantified using ImageJ, BTK signal was normalized to β-actin, and levels in DMSO were defined as 100%. BTK levels versus concentrations were plotted, and the data were fitted to one-phase decay in Prism 8 to calculate the DC50.

BTK kinase domain = BTK kinase domain (Homo sapiens, UniProt Q06187); experiment: Labeling of recombinant BTK by intact protein LC/MS; type: binding; parameters: BTK kinase domain was expressed and purified as previously reported; made in house; details: BTK 2 μM, 2a 2 μM, 10 min, 25 °C, pH 8
Sequence of BTK kinase domain (Q06187 402-655 limits assumed): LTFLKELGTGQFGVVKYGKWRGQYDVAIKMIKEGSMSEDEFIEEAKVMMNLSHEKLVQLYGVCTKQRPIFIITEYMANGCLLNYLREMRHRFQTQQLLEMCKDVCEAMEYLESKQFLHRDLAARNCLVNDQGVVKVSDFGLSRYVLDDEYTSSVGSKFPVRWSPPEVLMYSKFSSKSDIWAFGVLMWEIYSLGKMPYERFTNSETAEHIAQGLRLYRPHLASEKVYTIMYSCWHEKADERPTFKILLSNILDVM

BTK [3] = biological target: T1, BTK; parameters: BTK kinase domain was expressed and purified as previously reported; made in house; method as in Reddi et al., J. Am. Chem. Soc. 2021, 143 (13), 4979–4992; details: ref Reddi et al., J. Am. Chem. Soc. 2021, 143 (13), 4979–4992; cited from earlier work
Target sequence in this assay (Q06187 402-655 limits assumed): as above

BTK-1h = biological target: T2, BTK-1h (Homo sapiens, UniProt Q06187); experiment: High-throughput screening with 1h-labeled BTK; type: binding; details: Dataset S2A; 200 μM compound, BTK-1h, 32 °C, 10 min
T2 construct: The BTK kinase domain was diluted to 2 μM in the buffer, and 2 μM 1h was added; made in house
T2 sequence (Q06187 402-655): as the sequence (Q06187 402-655 limits assumed) above
Description: The collection was composed of BTK binding compounds obtained in our previous luminescence screen[37] (Data set S2). […] The resulting BTK-1h (50 μL) was added to the inhibitors.

[4] = phosphate buffer pH 8, 37 °C, in 2 days

| Compound | BTK Inhibition reported in luminescence assay* (BTK [3]) | FI (650)/FI (620) (BTK-1h) | FI (BTK-1h)/FI (BTK-1h+Inhibitor) at 620 nm (BTK-1h) | further results |
| --- | --- | --- | --- | --- |
| C=C(CN1CCC[C@@H](n2nc(-c3ccc(Oc4ccccc4)cc3)c3c(N)ncnc32)C1)C(=O)OCC [1a] | – | – | – | time to complete reaction with GSH (GSH reactivity assay; 100 μM compound, 5 mM GSH, pH 8, 14 °C): ≤ 10 min; half-life at 100 μM (GSH reactivity assay; 100 μM compound): < 0.167 h; hydrolysis/elimination (Buffer stability assay; PBS buffer pH 8, 37 °C, in two days): 100%; elimination (Buffer stability assay; [4]): 50%; hydrolysis (Buffer stability assay; [4]): 50% |
| C#CCCCCC(=O)NC1CCN(C(=O)C(=C)CN2CCC[C@@H](n3nc(-c4ccc(Oc5ccccc5)cc4)c4c(N)ncnc43)C2)CC1 [1d] | – | – | – | half-life at 100 μM (GSH reactivity assay; 100 μM compound): > 100 h; less reactive toward GSH than ibrutinib (GSH reactivity assay; 5 mM GSH, pH 8): > 20 fold; labeling of BTK in live Mino cells (BTK [1]): labeled BTK with more selectivity |
| C=C(CN1CCC[C@@H](n2nc(-c3ccc(Oc4ccccc4)cc3)c3c(N)ncnc32)C1)C(=O)NCCN [1e] | – | – | – | Ibr-H elimination (Buffer stability assay; phosphate buffer pH 8, 37 °C, after 4 days): 25% |
| C=C(CN1CCC[C@@H](n2nc(-c3ccc(Oc4ccccc4)cc3)c3c(N)ncnc32)C1)C(=O)NCCOCCOCCOCCOCCNc1cccc2c1C(=O)N(C1CCC(=O)NC1=O)C2=O (some centres unmarked) [1n] | – | – | – | Log2(DMSO/treated) (Mino cells; BTK_HUMAN): 4.3089; Log2(DMSO/treated) (Mino cells; EXOS4_HUMAN): 1.641; Log2(DMSO/treated) (Mino cells; H14_HUMAN;H11_HUMAN;H1T_HUMAN): 1.44; depletion of BTK (Mino cells; Mino cells): more than 16 fold; depletion of CSK (Mino cells; Mino cells): more than 50%; DC50 (BTK [2]; read-out: DC50): < 100 nM; DC50 (BTK [2]; read-out: DC50 according to the polynomial fit): 11.4 nM; water adduct formed (Buffer stability assay; PBS buffer pH 8, 37 °C): 15% |
| C=C(CN1CCC[C@@H](n2nc(-c3ccc(Oc4ccccc4)cc3)c3c(N)ncnc32)C1)C(=O)NCCOCCOCCOCCOCCC(=O)Nc1cccc2c1CN(C1CCC(=O)NC1=O)C2=O (some centres unmarked) [1p] | – | – | – | water adduct formed (Buffer stability assay; PBS buffer pH 8, 37 °C): 5% |
| C#CCCNC(=O)C(=C)CN1CCC(CNc2ncnc(N)c2-c2ccc(Oc3ccccc3)cc2)CC1 [2a] | – | – | – | single labeling of target (BTK) (BTK kinase domain): 100% |
| COc1cc(C[C@H](C)[C@H](C)Cc2ccc3c(c2)OCO3)ccc1O [PCM-0216424-001] | 68.7 | 0.9224 | 1.025 | – |
| COc1c(O)c(C)cc2c1C(=O)c1c(O)cccc1C2=O [PCM-0216457-001] | 64.1 | 1.085 | 1.022 | – |
| COc1cc(O)c2c(=O)cc(-c3ccc(O)c(O)c3)oc2c1 [PCM-0216461-001] | 61 | 2.385 | 1.063 | – |
| COc1ccc2cc3[n+](cc2c1O)CCc1cc2c(cc1-3)OCO2.[Cl-] [PCM-0216489-001] | 97.3 | 1.203 | 0.9862 | – |
| COc1cc(/C=C/C(=O)CC(=O)/C=C/c2ccc(O)cc2)ccc1O [PCM-0216521-001] | 110.4 | 2.134 | 0.9621 | – |
| C[C@@H]1O[C@@H](O[C@H]2[C@H](O[C@H]3CC[C@@]4(C)[C@@H](CC[C@]5(C)[C@@H]4CC=C4[C@@H]6CC(C)(C)CC[C@]6(C(=O)O)CC[C@]45C)[C@]3(C)CO)OC[C@H](O[C@@H]3O[C@H](CO)[C@@H](O)[C@H](O)[C@H]3O)[C@@H]2O)[C@H](O)[C@H](O)[C@H]1O [PCM-0216539-001] | 52.5 | 0.7503 | 1.048 | – |
| CC(=O)O[C@@H]1CC[C@@]2(C)[C@@H](CC[C@]3(C)[C@@H]2C(=O)C=C2[C@@H]4[C@@H](C)[C@H](C)CC[C@]4(C)CC[C@]23C)[C@@]1(C)C(=O)O [PCM-0216599-001] | 88 | 0.9109 | 1.037 | – |
| Cc1c[nH]c(/C=C2\C(=O)Nc3ccccc32)c1CCC(=O)O [PCM-0216652-001] | 83.4 | 1.505 | 1.061 | – |
| COc1ccc2[nH]cc(/C=C3\C(=O)Nc4ccc(NC(=O)CCN5CCCCC5)cc43)c2c1 [PCM-0216653-001] | 51.7 | 1.609 | 0.9946 | – |
| O=C1CCC(N2C(=O)c3cccc(O)c3C2=O)C(=O)N1 (centres unmarked) [thalidomide-OH] | – | – | – | rescue of 1n-induced BTK degradation (BTK [2]; Mino cells pretreated 2 h before PROTAC 24 h): able to rescue the degradation |
